Where “and” joins values, the source holds several entries; their conditions need not be identical. Equal values may be shown once. Read-outs that look alike come from different tables or passages of the source.
Key:
[1] = cited from earlier work; for SW (water solubility): measured in previous work; for log KOW: n-octanol-water partition coefficient; for log KOC: organic carbon-water partition coefficient
[2] = Partitioning between methanolic loading solution and aqueous medium (passive dosing); format: physicochemical; settings: methanolic loading solution vs M4 medium at equilibrium via PDMS disk
Procedure: Polydimethylsiloxane (PDMS) passive dosing disks, each weighing 2 g with a surface area of 19.6 cm^2, were prepared using SYLGARD 184 silicone elastomer kit and cleaned before use. Details of the procedure are given in Section S3 (SI file). PDMS disks were loaded in methanolic solution or suspension of the test compounds (10 mL solution/disk) with constant shaking for 72 h, wiped with a lint-free tissue, and washed with water for 30 min four times to remove methanol.
The time required to reach equilibrium between the PDMS disk and the aqueous medium was determined by conducting 72-h kinetic experiments. Chemicals were dosed into M4 medium in 250 mL Schott bottles (in triplicates) at a ratio of 1 disk/100 mL M4 medium using disks loaded with methanolic solution of a single test substance. For the controls, the disks were loaded with pure methanol. While shaking the bottles at room temperature, five samples were taken at different time points over 72 h and the equilibration time was determined.
Passive dosing enabled successful quantification of exposure concentrations after centrifugation of algal biomass (CW), closely matching freely dissolved concentrations (Cfree) calculated from partition coefficients between methanol and the medium (KMeOH:medium; see Figure S12 and section S6 for details).
Table S5 Partition coefficients between the methanolic loading solutions (CMeOH, t=0, nominal concentration
in methanol at t=0) and the measured equilibrium concentrations of the aqueous medium (Cmedium, eq).
Compound CMeOH, t=0 Measured KMeOH:medium log log KMeOH:medium Calculated
[mg L-1] Cmedium, eq KMeOH:medium (mean ± SD) Cmedium, eq
* The “calculated CMedium, eq” were reported using the average KMeoH:medium and CMeOH, t=0. […]

[3] = Table 1; EPA Comptox where available, otherwise EPISuite MPBPVP v1.43 prediction; cited from earlier work
[4] = Bioaccumulation test (growth, uptake, depuration; adapted from OECD 305) with passive dosing; format: in vivo, Daphnia magna; settings: whole body (homogenate, wet weight); for concentration at 120 h: Daphnia magna, concentration in animal body at end of uptake phase (t = 120 h), read-out: Body burden
Procedure: (§1) Bioaccumulation tests with D. magna were adapted from OECD guideline 305 (for fish).[27] Each compound was tested using 110 animals: 10 for controls and 100 for chemical exposure. The animals, aged 10 days to limit growth dilution and provide sufficient tissue for analysis, were exposed to a single subtoxic concentration of each chemical. The test included three phases: (i) growth, (ii) uptake, and (iii) depuration. A combined chronic toxicity and bioaccumulation test was also conducted in a minimized version (section 2.6).
(§2) Ten days before exposure, 110 juvenile daphnids (<24 h old) were collected from the stock culture and grown in M4 medium. Due to the large number of animals required for this test, the volume of media and amount of food provided to the Daphnia were reduced for experimental feasibility. This was achieved by maintaining a denser population (20 mL medium/daphnid), as well as less food (D. subspicatus equivalent to 0.1 mg C/daphnid/day) compared to the stock culture yet still within the limits allowed by OECD 211. Other dietary supplements (fish food and spirulina) and physical conditions (temperature, light/dark cycle) were the same as the stock culture.
(§3) Before exposure started, 2 L of M4 medium containing D. subspicatus at a density sufficient for 100 daphnids for 5 days (25 mg C L^–1) was dosed with the test substance by shaking with 24 PDMS disks for 72 h. For controls (10 animals), 200 mL of M4 medium containing D. subspicatus ([…]) was equilibrated with 2 disks loaded with pure methanol. Immediately before the start of exposure phase, 10-day old daphnids were transferred to fresh medium for 1 h to clean their guts. Thereafter, 10 control daphnids were placed in 200 mL of pre-equilibrated clean medium with 2 clean PDMS disks, while 100 animals (treatment group) were divided into two beakers, each with 50 animals, 1 L of predosed exposure medium, and 12 loaded disks to begin the 5-day uptake phase.
(§4) Neonates were discarded daily, and animals were sampled at 24 h intervals over 120 h (5 time points, 2 replicates of 5 animals each). Sampled daphnids were transferred to clean medium for 15 min to remove chemicals present on animal surface, dried with lint-free tissue and weighed to determine wet weight. Finally, 5 animals of known mass were combined in each vial and stored at −20 °C until extraction. As passive dosing maintains constant concentrations,[1] medium samples for analysis (with and without biomass) were only taken at the end of the uptake phase.
(§5) 50 animals were first transferred to fresh medium for 15 min to remove exposure solution from their surface, and then placed in a new clean medium for the depuration phase. Animals were sampled at 4 time points (2 replicates of 5 animals each as in the uptake phase) over 69 to 96 h. After sampling, the remaining animals were transferred to fresh medium, and the old medium was collected for analysis. Control animals and their medium were analyzed at the end of both the uptake and depuration phases (5 animals each).
(§6) For quantification of body burdens, 5 daphnids were thawed, homogenized in 5 mL Milli-Q water (IKA T-25 digital Ultra-TURRAX) and extracted twice with 2 mL of hexane. The extracts were combined, dried with Na2SO4, concentrated under a nitrogen stream, and spiked with internal standard.
(§7) The depuration rate constant (k2) was derived by plotting the natural logarithm of CD against time ([h]), with the slope giving k2 (Figure S3).[27] The growth rate constant (kg) was determined from the slope of the regression line in the plot of ln (D. magna wet weight) versus time, and the growth-corrected depuration rate constant (k2g) was calculated using eq 4. [drawing 4] 4
(§8) From k2, the optimal uptake and depuration durations to reach 50% and 95% steady-state were estimated using eqs 5 and 6. [drawing 5] 5 [drawing 6] 6
(§9) The bioaccumulation factor (BAF*) was calculated, even though steady-state was not reached. […]

Daphnia magna = experiment: as above; format: in vivo; settings: for log BAF*L5%: 5-day uptake, steady-state not reached, normalized to 5% lipid assuming 1.5% lipid in daphnids, eq 8; for effects on growth (wet weight) in bioaccumulation test: BCRB 21.6, BNF 4.5, BNT 4.3, DNF 0.1 μg L^–1, vs controls, p < 0.05; for log BCFL5% (BAF*L5%) / log k2 (growth-dilution corrected, k2g): Table S7, this study; for k2g (growth dilution corrected depuration rate constant): eq 4; for t95 (time to reach 95% steady-state): estimated from k2, eq 6; for k2 (depuration rate constant): slope of ln CD vs time
Procedure: as §1, §2, §3, §4, §5, §6, §7, §8, §9

[5] = Table S7, this study, read-out: half-life (converted)
[6] = t50 (time to reach 50% steady-state / depuration half-life), estimated from k2, eq 5

| SMILES | SW (water solubility) [1] [µg/mL] | log KOW [1] | log KOC [1] | log KMeOH:medium (mean ± SD) [2] | VP (vapor pressure) [3] | concentration at 120 h [4] [ng/g] | half-life [4, 5] [h] | half-life [4, 6] [h] | log BAF*L5% (Daphnia magna) | effects on growth (wet weight) in bioaccumulation test (Daphnia magna) | log BCFL5% (BAF*L5%) (Daphnia magna) | log k2 (growth-dilution corrected, k2g) (Daphnia magna) [h-1] | k2g (growth dilution corrected depuration rate constant) (Daphnia magna) [h⁻¹] | t95 (time to reach 95% steady-state) (Daphnia magna) [h] | k2 (depuration rate constant) (Daphnia magna) [h⁻¹] |
| --- | --- | --- | --- | --- | --- | --- | --- | --- | --- | --- | --- | --- | --- | --- | --- |
| c1ccc2c(c1)ccc1[nH]c3ccccc3c12 [BCRB, 7H-benzo[c]carbazole] | 0.80 | 5.22 | 4.84 | 4.12±0.06 | 4.43x10^-8 mm Hg | 25600 | 6.23 | 6 | 3.60±0.09 L kg^-1 lipid | statistically significant effects on growth | 3.6 | -0.96 | 0.109 | 27 | 0.111 |
| c1ccc2c(c1)ccc1oc3ccccc3c12 [BNF, benzo[b]naphtho[1,2-d]furan] | 0.25 | 5.6 | 4.98 | 5.26±0.06 | 3.36x10^-6 mm Hg | 2580 | 27.7 | 28 | 3.28±0.31 L kg^-1 lipid | statistically significant effects on growth | 3.28 | -1.66 | 0.022 | 120 | 0.025 |
| c1ccc2c(c1)ccc1sc3ccccc3c12 [BNT, benzo[b]naphtho[1,2-d]thiophene] | 0.026 | 5.75 | 5.50 | 5.46±0.12 | 8.97x10^-7 mm Hg | 29400 | 16.5 | 17 | 4.36 L kg^-1 lipid and 4.36±0.43 L kg^-1 lipid | No inhibitory growth effects | 4.36 | -1.39 | 0.040 | 71 | 0.042 |
| c1ccc2c(c1)ccc1oc3ccc4ccccc4c3c12 [DNF, dinaphtho[2,1-b:1′,2′-d]furan] | 0.0015 | 6.89 | 6.61 | 5.98±0.14 | 2.15x10^-8 mm Hg | 176 | 53.7 | 54 | 3.77 L kg^-1 lipid and 3.77±0.08 L kg^-1 lipid | No inhibitory growth effects | 3.77 | -1.98 | 0.0105 | 232 | 0.0129 |

From PMC12080252, “Daphnia magna as an Alternative Model for (Simultaneous) Bioaccumulation and Chronic Toxicity Assessment—Controlled Exposure Study Indicates High Hazard of Heterocyclic PAHs” (Environmental Science & Technology, 2025)
